± gives the expanded uncertainty stated by the source.
Assays:
[1] = excess molar enthalpy (molar enthalpy of mixing); xn = mol fraction of the nth substance listed; conditions: 308.15 K, Liquid, Calvet calorimetry
[2] = molar heat capacity at constant pressure; xn = mol fraction of the nth substance listed; conditions: 100 kPa, Liquid

O=C1CCCCCC1 [cycloheptanone] + C1COCCO1
[1], 100 kPa
Conditions | excess molar enthalpy [kJ/mol]
x2 = 0.0726 | 0.0304 ± 0.0011
x2 = 0.1258 | 0.0496 ± 0.0015
x2 = 0.1769 | 0.0643 ± 0.0017
x2 = 0.2252 | 0.0783 ± 0.002
x2 = 0.2786 | 0.0891 ± 0.0022
x2 = 0.3286 | 0.0979 ± 0.0024
x2 = 0.3746 | 0.103 ± 0.0025
x2 = 0.4282 | 0.107 ± 0.0026
x2 = 0.4712 | 0.108 ± 0.0026
x2 = 0.5232 | 0.106 ± 0.0026
x2 = 0.5725 | 0.103 ± 0.0025
x2 = 0.6235 | 0.0975 ± 0.0024
x2 = 0.6762 | 0.0889 ± 0.0022
x2 = 0.7256 | 0.0799 ± 0.002
x2 = 0.7716 | 0.0694 ± 0.0018
x2 = 0.8125 | 0.0589 ± 0.0016
x2 = 0.8682 | 0.0423 ± 0.0013
x2 = 0.9129 | 0.0293 ± 0.0011

molar heat capacity at constant pressure [J/K/mol], [2], Extra sensitive DSC
Conditions | 293.15 K | 298.15 K | 303.15 K | 308.15 K
x2 = 0.0943 | 199.36 ± 7.7 | 200.68 ± 7.8 | 202.21 ± 7.8 | 203.95 ± 7.9
x2 = 0.1587 | 198.02 ± 7.7 | 199.53 ± 7.7 | 201.25 ± 7.8 | 203.14 ± 7.9
x2 = 0.2016 | 197.04 ± 7.7 | 198.63 ± 7.7 | 200.42 ± 7.8 | 202.4 ± 7.9
x2 = 0.2574 | 195.59 ± 7.6 | 197.23 ± 7.7 | 199.23 ± 7.7 | 201.2 ± 7.8
x2 = 0.3025 | 194.28 ± 7.5 | 196 ± 8 | 197.99 ± 7.7 | 200.03 ± 7.8
x2 = 0.3412 | 193.02 ± 7.5 | 194.78 ± 7.6 | 196.83 ± 7.6 | 198.81 ± 7.7
x2 = 0.3986 | 190.94 ± 7.4 | 192.67 ± 7.5 | 194.91 ± 7.6 | 196.9 ± 7.6
x2 = 0.4215 | 189.98 ± 7.4 | 191.84 ± 7.4 | 194.03 ± 7.5 | 196.02 ± 7.6
x2 = 0.4796 | 187.51 ± 7.3 | 189.28 ± 7.3 | 191.5 ± 7.4 | 193.56 ± 7.5
x2 = 0.5213 | 185.45 ± 7.2 | 187.35 ± 7.3 | 189.58 ± 7.4 | 191.52 ± 7.4
x2 = 0.5743 | 182.67 ± 7.1 | 184.52 ± 7.2 | 186.79 ± 7.2 | 188.83 ± 7.3
x2 = 0.6142 | 180.46 ± 7 | 182.26 ± 7.1 | 184.49 ± 7.2 | 186.55 ± 7.2
x2 = 0.6687 | 177.12 ± 6.9 | 178.92 ± 6.9 | 181.02 ± 7 | 183.16 ± 7.1
x2 = 0.7149 | 174.07 ± 6.8 | 175.86 ± 6.8 | 177.95 ± 6.9 | 180.03 ± 7
x2 = 0.7623 | 170.7 ± 6.6 | 172.51 ± 6.7 | 174.5 ± 6.8 | 176.57 ± 6.8
x2 = 0.8169 | 166.69 ± 6.5 | 168.4 ± 6.5 | 170.24 ± 6.6 | 172.25 ± 6.7
x2 = 0.8654 | 162.9 ± 6.3 | 164.56 ± 6.4 | 166.21 ± 6.5 | 168.11 ± 6.5
x2 = 0.9149 | 158.86 ± 6.2 | 160.38 ± 6.2 | 161.87 ± 6.3 | 163.59 ± 6.3

O=C1CCCCC1 [cyclohexanone] + C1COCCO1
Conditions | excess molar enthalpy, 100 kPa [kJ/mol] | molar heat capacity at constant pressure, 293.15 K [J/K/mol] | molar heat capacity at constant pressure, 298.15 K [J/K/mol] | molar heat capacity at constant pressure, 303.15 K [J/K/mol] | molar heat capacity at constant pressure, 308.15 K [J/K/mol]
[1], x2 = 0.0792 | 0.0817 ± 0.0021 | – | – | – | –
[1], x2 = 0.1286 | 0.124 ± 0.003 | – | – | – | –
[1], x2 = 0.1749 | 0.16 ± 0.0037 | – | – | – | –
[1], x2 = 0.2236 | 0.192 ± 0.0044 | – | – | – | –
[1], x2 = 0.2743 | 0.22 ± 0.005 | – | – | – | –
[1], x2 = 0.3289 | 0.245 ± 0.0055 | – | – | – | –
[1], x2 = 0.3729 | 0.262 ± 0.0058 | – | – | – | –
[1], x2 = 0.4298 | 0.279 ± 0.0062 | – | – | – | –
[1], x2 = 0.4715 | 0.287 ± 0.0064 | – | – | – | –
[1], x2 = 0.5242 | 0.293 ± 0.0065 | – | – | – | –
[1], x2 = 0.5735 | 0.293 ± 0.0065 | – | – | – | –
[1], x2 = 0.6199 | 0.289 ± 0.0064 | – | – | – | –
[1], x2 = 0.7182 | 0.262 ± 0.0058 | – | – | – | –
[1], x2 = 0.7628 | 0.241 ± 0.0054 | – | – | – | –
[1], x2 = 0.8193 | 0.205 ± 0.0046 | – | – | – | –
[1], x2 = 0.8672 | 0.165 ± 0.0038 | – | – | – | –
[1], x2 = 0.9173 | 0.113 ± 0.0027 | – | – | – | –
[2], x2 = 0.0799 | – | 173.61 ± 6.7 | 175.65 ± 6.8 | 177.71 ± 6.9 | 179.75 ± 7
[2], x2 = 0.1351 | – | 171.94 ± 6.7 | 173.94 ± 6.8 | 175.96 ± 6.8 | 177.96 ± 6.9
[2], x2 = 0.1965 | – | 170.17 ± 6.6 | 172.12 ± 6.7 | 174.08 ± 6.8 | 176.03 ± 6.8
[2], x2 = 0.2378 | – | 169.01 ± 6.6 | 170.93 ± 6.6 | 172.86 ± 6.7 | 174.77 ± 6.8
[2], x2 = 0.2874 | – | 167.66 ± 6.5 | 169.54 ± 6.6 | 171.43 ± 6.7 | 173.28 ± 6.7
[2], x2 = 0.3258 | – | 166.66 ± 6.5 | 168.49 ± 6.5 | 170.34 ± 6.6 | 172.17 ± 6.7
[2], x2 = 0.3642 | – | 165.66 ± 6.4 | 167.46 ± 6.5 | 169.27 ± 6.6 | 171.07 ± 6.6
[2], x2 = 0.4195 | – | 164.26 ± 6.4 | 166.02 ± 6.4 | 167.78 ± 6.5 | 169.52 ± 6.6
[2], x2 = 0.4625 | – | 163.21 ± 6.3 | 164.92 ± 6.4 | 166.62 ± 6.5 | 168.33 ± 6.5
[2], x2 = 0.5061 | – | 162.15 ± 6.3 | 163.82 ± 6.4 | 165.49 ± 6.4 | 167.15 ± 6.5
[2], x2 = 0.5543 | – | 161.01 ± 6.2 | 162.63 ± 6.3 | 164.25 ± 6.4 | 165.88 ± 6.4
[2], x2 = 0.6023 | – | 159.9 ± 6.2 | 161.47 ± 6.3 | 163.05 ± 6.3 | 164.62 ± 6.4
[2], x2 = 0.6487 | – | 158.83 ± 6.2 | 160.36 ± 6.2 | 161.9 ± 6.3 | 163.44 ± 6.3
[2], x2 = 0.6946 | – | 157.82 ± 6.1 | 159.29 ± 6.2 | 160.78 ± 6.2 | 162.27 ± 6.3
[2], x2 = 0.7412 | – | 156.79 ± 6.1 | 158.22 ± 6.1 | 159.66 ± 6.2 | 161.12 ± 6.2
[2], x2 = 0.7845 | – | 155.87 ± 6 | 157.25 ± 6.1 | 158.66 ± 6.2 | 160.06 ± 6.2
[2], x2 = 0.8398 | – | 154.71 ± 6 | 156.04 ± 6.1 | 157.39 ± 6.1 | 158.74 ± 6.2
[2], x2 = 0.8975 | – | 153.56 ± 6 | 154.82 ± 6 | 156.1 ± 6.1 | 157.39 ± 6.1

O=C1CCCCCC1 [cycloheptanone] + C1CCOCC1
[1], 1e-07 kPa
Conditions | excess molar enthalpy [kJ/mol]
x2 = 0.0898 | 0.0549 ± 0.0016
x2 = 0.1356 | 0.0749 ± 0.0019
x2 = 0.1846 | 0.0896 ± 0.0022
x2 = 0.2366 | 0.104 ± 0.0025
x2 = 0.2882 | 0.114 ± 0.0027
x2 = 0.3312 | 0.119 ± 0.0028
x2 = 0.3942 | 0.123 ± 0.0029
x2 = 0.4412 | 0.125 ± 0.003
x2 = 0.4895 | 0.124 ± 0.003
x2 = 0.5326 | 0.123 ± 0.0029
x2 = 0.5842 | 0.12 ± 0.0029
x2 = 0.6335 | 0.116 ± 0.0028
x2 = 0.6875 | 0.109 ± 0.0026
x2 = 0.7289 | 0.102 ± 0.0025
x2 = 0.7789 | 0.092 ± 0.0023
x2 = 0.8278 | 0.0774 ± 0.002
x2 = 0.8799 | 0.0612 ± 0.0017
x2 = 0.9199 | 0.0434 ± 0.0013

molar heat capacity at constant pressure [J/K/mol], [2], Extra sensitive DSC
Conditions | 293.15 K | 298.15 K | 303.15 K | 308.15 K
x2 = 0.1121 | 196.3 ± 7.6 | 197.43 ± 7.7 | 198.93 ± 7.7 | 200.52 ± 7.8
x2 = 0.1652 | 194.07 ± 7.5 | 195.27 ± 7.6 | 196.82 ± 7.6 | 198.49 ± 7.7
x2 = 0.2103 | 192.18 ± 7.5 | 193.43 ± 7.5 | 195.03 ± 7.6 | 196.74 ± 7.6
x2 = 0.2652 | 189.86 ± 7.4 | 191.15 ± 7.4 | 192.76 ± 7.5 | 194.53 ± 7.5
x2 = 0.3187 | 187.56 ± 7.3 | 188.91 ± 7.3 | 190.53 ± 7.4 | 192.28 ± 7.5
x2 = 0.3562 | 185.92 ± 7.2 | 187.28 ± 7.3 | 188.93 ± 7.3 | 190.71 ± 7.4
x2 = 0.4036 | 183.78 ± 7.1 | 185.22 ± 7.2 | 186.84 ± 7.2 | 188.65 ± 7.3
x2 = 0.4562 | 181.33 ± 7 | 182.82 ± 7.1 | 184.44 ± 7.2 | 186.27 ± 7.2
x2 = 0.4921 | 179.6 ± 7 | 181.13 ± 7 | 182.76 ± 7.1 | 184.65 ± 7.2
x2 = 0.5341 | 177.51 ± 6.9 | 179.07 ± 7 | 180.74 ± 7 | 182.63 ± 7.1
x2 = 0.5896 | 174.63 ± 6.8 | 176.29 ± 6.8 | 177.96 ± 6.9 | 179.93 ± 7
x2 = 0.6231 | 172.8 ± 6.7 | 174.52 ± 6.8 | 176.25 ± 6.8 | 178.18 ± 6.9
x2 = 0.6741 | 169.93 ± 6.6 | 171.69 ± 6.7 | 173.45 ± 6.7 | 175.49 ± 6.8
x2 = 0.7256 | 166.92 ± 6.5 | 168.74 ± 6.5 | 170.53 ± 6.6 | 172.58 ± 6.7
x2 = 0.7769 | 163.72 ± 6.3 | 165.58 ± 6.4 | 167.38 ± 6.5 | 169.46 ± 6.6
x2 = 0.8321 | 160.14 ± 6.2 | 162 ± 6.3 | 163.83 ± 6.4 | 165.92 ± 6.4
x2 = 0.8754 | 157.18 ± 6.1 | 159.06 ± 6.2 | 160.84 ± 6.2 | 162.89 ± 6.3
x2 = 0.9365 | 152.82 ± 5.9 | 154.62 ± 6 | 156.31 ± 6.1 | 158.31 ± 6.1
